# Measured values as given in US8334413B2, “Topical compositions and methods for epithelial-related conditions” (Signum Biosciences, Inc., priority 2004, dated 2012).
# Legend:
# mouse ear [1] = assay: TPA dose response, mouse ear edema; format: in vivo, Swiss Webster mice; settings: TPA 0.25 to 1.75 μg/20 μl in acetone, topical, 5.5 hours, 6 mm ear punch
# Experimental: Increasing concentrations of TPA dissolved in acetone were applied with the aid of a micropipetter onto the right ear of each of the five 6-8 week old, male Swiss Webster mice used in this analysis. Ten microliters were spread evenly onto the inner and outer surfaces using the pipette tip. The mice were then returned to their cages. The contralateral ear was treated only with acetone. After 5.5 hours, the mice were sacrificed and 6 mm punches were taken from each ear and weighed. Edema response was expressed as a percent increase in the treated ear's weight over the untreated ear. The dose response curve, as well as an ED50 value, was determined using the Lichtfield method (Lichtfield J T W. F., A simplified method of evaluating dose-effect experiments, Journal of Pharmacology and Experimental Therapeutics, 1948, 96: P. 99-113).
# TPA-induced MPO activity [2] = assay: TPA-induced MPO activity in the contralateral vehicle-treated ear (systemic effect); format: in vivo, mice
# Experimental: These included dexamethasone, a steroid, and indomethasone, a non-steroid anti-inflammatory drug, which targets cycloxygenases. The action of AFC in this model was, therefore, compared to that of dexamethasone and indomethasone. Each of these agents were tested using the same protocols used to test AFC.
# mouse ear [3] = assay: AFC in acetone alone, mouse ear edema (irritancy); format: in vivo, mice; settings: topical, dose up to 32 mg/20 μl, 5.5 hours
# Experimental: The AFC inventive compositions were spread evenly with a pipette tip. Each contralateral ear was treated with only acetone in the same manner. The mice then were returned to their cages. After 5.5 hours, mice were sacrificed and 6 mm punches were taken from each ear and weighed. Edema response was expressed as the percent increase in the treated ear's weight over the untreated (acetone, vehicle only) ear.
# TPA-induced edema = assay: TPA-induced edema, murine ear acute contact irritation model; format: in vivo, mice; settings: 2 μg TPA/20 μl acetone, AFC 15 min later, topical, 5.5 hours
# Experimental: In order to assess the effects of the inventive composition on TPA-induced edema, 2 μg of TPA in 20 μl acetone was applied with the aid of a micropipetter onto both ears of each of 6 mice. The mice were returned to their cages. […] 20 μl of an acetone vehicle was applied similarly to the left ear of each mouse as an internal negative control. After treatment, the mice were returned to their cages for 5.5 hours. The mice were sacrificed by cervical dislocation. The ears were immediately removed at their base and a 6 mm diameter punch biopsy was taken from the center of each ear. The ear punch was weighed on an analytical balance for edema measurements as described above.
# TPA-induced MPO activity [4] = assay: TPA-induced neutrophil infiltration, MPO assay; format: in vivo, Swiss Webster male mice
# Experimental: Neutrophil-infiltration Assay: Swiss Webster male mice (n=6) were treated with 1 μg/20 μl of TPA as described above in order to assess whether or not TPA induced neutrophil infiltration. Acetone was used as a control. TPA was administered as described above. The mice were returned to their cages for 24 hrs to allow neutrophil infiltration, then sacrificed by cervical dislocation. The ears were immediately removed for punch biopsy, and punches were fixed for subsequent histological analysis and MPO enzymatic assay.
# MPO Assay: This assay measures myeloperoxidase, (“MPO”) which is packaged in the primary granules of mature granulocytes including the neutrophil. Thus, the amount of MPO in the ear is proportional to the number of infiltrating neutrophils.
# MPO enzyme activity of the ears was assayed using the technique detailed by Griffiths and coworkers (1988). To conduct the assay, each ear was homogenized in 1.0 ml of cetyltrimethylammonium bromide buffer for 5 sec using a Pro 200 tissue blender (Pro Scientific, Inc., Oxford, Conn.) at setting 5. These samples were then centrifuged for 5 minutes at 15,000 rpm in a 5415 Eppendorf microcentrifuge. Triplicate 20 microliter aliquots of supernatant were added to 200 microliters of reaction mixture (1.25 ml 1M Potassium Phosphate, 4.175 mg o-dianisidine dihydrochloride and 5 μl of 1% peroxide in a final volume of 25 ml). Absorbance at 450 nm was then measured at room temperature at three 60 second intervals using Bio-Kinetics Reader EL 312E (Bio-Tek Instruments). Activity, which was determined by a Bradford assay of the homogenate (BioRad Protein Assay, BioRad Laboratories, Inc. Hercules, Calif.) was expressed as units MPO per mg tissue +/−standard error.
# (§1) Two micrograms of TPA in 20 μl of acetone was applied onto both ears of each mouse to induce neutrophil infiltration. […] After 24 hours, the mice were sacrificed.
# [5] = tested on: TPA-induced neutrophil infiltration; assay: TPA-induced neutrophil infiltration, neutrophil counting assay (histology); format: in vivo, mice; settings: 24 hours
# Experimental: Neutrophil Counting Assay: Ear punches buffered in 10% formalin in PBS at ambient temperature for a minimum of 24 hrs. were sectioned and stained with Hematoxilin & Eosin (“H&E”). The number of neutrophils, identified by their multilobular nuclei, in 6 randomly 100× magnified fields distributed along the length of the ear were manually counted. The results are expressed as the average number per field for each ear.
# as §1
# TPA-induced MPO activity [6] = assay: TPA-induced MPO activity at different application times; format: in vivo, mice; settings: 1 μg/20 μl TPA; 1 mg/20 μl AFC at various times before and after TPA
# Experimental: In this example, both ears of six mice were treated with a 1 μg/20 μl dose of TPA in acetone.
# TPA-induced erythema = assay: TPA-induced erythema, mouse ear; format: in vivo; settings: 1 μg/20 μl TPA, 1 mg/20 μl AFC after 1 hour, photo 23 hours later
# Experimental: For this example, both ears of a mouse were treated with a 1 μg/20 μl dose of TPA in acetone. […] The photo was taken 23 hours later using a Nikon D70 digital camera.
# human skin = assay: SDS irritant patch test on human skin, AFC pre-applied; format: in vivo; settings: 140 mM AFC aqueous formulation pre-applied
# Experimental: An irritant was applied to the middle of the upper back of a human subject using a 0.2 ml 20% SDS solution and a Hill-Top Chamber patch with Webril pad. […] Patches 1a and 2a were removed after 2 hours, while patches 1b and 2b were removed after 2 hours and 30 minutes. High levels of irritation were visible in patch sites 2a and 2b.
# chronic irritation = assay: Chronic irritation by multiple TPA applications, mouse ear; format: in vivo, mice; settings: AFC in acetone, applied 6 hr apart on days 7, 8 and 9; TPA days 0, 2, 4, 7, 9
# Experimental: The effectiveness of the inventive compositions against established chronic irritation is assayed using a modification of the technique of Stanley P L et al., Mouse skin inflammation induced by multiple topical application 12-O-tetradeconoyphorbol-13-acetate. Skin Pharmacol. 1991, 4: p 262-271. (1991). Both ears of each mouse are treated with TPA in acetone, as above, in a series of 5 applications on the mornings of days 0, 2, 4, 7, and 9. […] Punches of the ears are taken the afternoon of the tenth day and prepared, as above, for the edema assay and the infiltration of neutrophils. Total granulocyte infiltration is assayed by measuring MPO activity. Macrophage infiltration is determined immunocytologically using the MOMA-2 antibody. Hydrocortisone, which is known to reduce inflammatory edema granulation infiltration and microphage infiltration, is used as a positive control.
# [7] = tested on: delayed-type hypersensitivity; assay: DNFB delayed-type hypersensitivity, mouse ear; format: in vivo, mice; settings: AFC 0.5 hr before or 15 min after DNFB challenge, assay 5 hr later
# Description: The mouse ear model, described above, is modified to assay the effect of anti-inflammatory agents in an immune based inflammation model (See Tramposch, K. M., Skin Inflammation, in In Vivo Models of Inflammation, M. L. Morgan D W, Editor. 1999, Birkhauser Verlag. p. 179-20 and Chapman, J. R., Z. Ruben, and G. M. Butchko, Histology of and quantitative assays for oxazolone-induced allergic contact dermatitis in mice. Am J Dermatopathol, 1986. 8(2): p. 130-8). In this model, a sensitizing dose of dinitrofluorobenzene (“DNFB”) 1-3% in acetone is applied topically according to a modification of the method by Back et al. (See Back, O. and T. Egelrud, Topical glucocorticoids and suppression of contact sensitivity. A mouse bioassay of anti-inflammatory effects. Br J Dermatol, 1985. 112(5): p. 539-45 and Bailey, S. C., et al., A novel contact hypersensitivity model for rank-ordering formulated corticosteroids. Inflamm Res, 1995. 44 Suppl 2: p. S162-3) to the shaved bellies of mice to elicit an immune response. Mice are challenged on day 5 with 40 μl of 0.5-1% DNFB to each ear. […] The ears are assayed for edema or neutrophil infiltration 5 hr later. Dexamethasone is used as a positive control. Five days later, the ears are challenged topically with a dose of DNFB insufficient to produce contact irritation. Simultaneously, cell infiltration studies are initiated. […]
# [8] = biological target: membrane-associated polyisoprenoid methyl transferase (Homo sapiens, UniProt O60725); settings: cited from earlier work
# membrane-associated polyisoprenoid methyl transferase, sequence (O60725 whole entry): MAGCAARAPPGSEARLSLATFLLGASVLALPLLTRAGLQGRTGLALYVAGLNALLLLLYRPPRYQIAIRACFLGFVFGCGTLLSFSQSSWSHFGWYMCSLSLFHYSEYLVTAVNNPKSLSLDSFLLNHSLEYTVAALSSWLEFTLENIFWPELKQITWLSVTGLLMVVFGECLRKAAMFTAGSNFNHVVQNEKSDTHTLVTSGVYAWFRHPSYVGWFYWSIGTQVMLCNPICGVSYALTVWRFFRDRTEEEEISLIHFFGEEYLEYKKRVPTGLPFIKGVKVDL
# [9] = tested on: neutrophil, macrophage, and platelet responses; settings: cited from earlier work
# [10] = 2 μg TPA/20 μl acetone, AFC 15 min later, topical, 24 hours
compound,measurement,setting,value
tetradecanoylphorbol acetate [TPA],maximum increase in ear weight,mouse ear [1],approximately 150 % of the acetone-treated ear
COc1ccc2c(c1)c(CC(=O)O)c(C)n2C(=O)c1ccc(Cl)cc1 [indomethasone],MPO activity in contralateral vehicle-treated ear (systemic effect),"TPA-induced MPO activity [2]; mouse, in vivo",increasing inhibition of MPO activity
C[C@@H]1C[C@H]2[C@@H]3CCC4=CC(=O)C=C[C@]4(C)[C@@]3(F)[C@@H](O)C[C@]2(C)[C@@]1(O)C(=O)CO [dexamethasone],MPO activity in contralateral vehicle-treated ear (systemic effect),"TPA-induced MPO activity [2]; mouse, in vivo",increasing inhibition of MPO activity
"CC(=O)N[C@@H](CSCC=C(C)CCC=C(C)CCC=C(C)C)C(=O)O (stereo in doubt) [AFC, N-acetyl-S-farnesylcysteine]","edema response (ear punch biopsy weight), AFC alone",mouse ear [3],no effect
same,maximum reduction in TPA-induced edema,TPA-induced edema,80%
same,"ED50, inhibition of TPA-induced MPO activity",TPA-induced MPO activity [4]; [10],0.065 mg/20 μl
same,inhibition of TPA-induced increases in MPO activity,TPA-induced MPO activity [4]; [10],> 80%
same,inflammation activity of AFC on its own in the Neutrophil-Infiltration Assay,TPA-induced MPO activity [4]; AFC alone,no inflammation activity of its own
same,reduction in dermal neutrophils (counted),"[5]; 1.0 mg/20 μl AFC, TPA irritation, statistically significant",80%
same,neutrophils observed histologically in AFC treated ear,"[5]; TPA pretreated ears, H&E",substantial reduction of neutrophils
same,effect on TPA-induced MPO activity versus time of application,TPA-induced MPO activity [6],"efficacy of AFC treatment prior to, simultaneous with, or after exposure of skin to TPA"
same,MPO activity in contralateral vehicle-treated ear (systemic effect),"TPA-induced MPO activity [2]; topical, increasing concentration on the other ear, TPA on both ears",no effect
same,TPA-induced erythema,TPA-induced erythema,observed an effect
same,skin irritation at patch site 1a,human skin; 20% SDS patch removed after 2 hours,normal skin
same,skin irritation at patch site 1b,human skin; 20% SDS patch removed after 2 hours and 30 minutes,mild response
same,chronic edema,chronic irritation,reduces
same,neutrophil number (chronic irritation),chronic irritation,reduces
same,edema (DNFB challenge),[7],effective in reducing
same,neutrophil infiltration (DNFB challenge),[7],effective in reducing
same,inhibition of membrane-associated polyisoprenoid methyl transferase,[8],inhibit
same,"neutrophil, macrophage, and platelet responses in vitro",[9],block some
